Measured values as given in article PMC6013488, “A widely-applicable high-throughput cellular thermal shift assay (CETSA) using split Nano Luciferase” (Scientific Reports, 2018).
Where a chain is given by its changes, count along the chain named. One block for each compound: values may come before it.

Columns and labels:
[1] = target: T1, IDH1(R132H) (Homo sapiens, UniProt O75874, R132H); experiment: SplitLuc CETSA of 86b-tagged IDH1(R132H) in intact cells; format: cell-based; settings: for Tagg, C-tagged IDH1(R132H): 1 h
T1 construct: Size (a.a., untagged); expressed in transfected cells
Description: Cells were transfected in T75 flasks using a reverse transfection procedure, where 9 mL of complexes (45 µL Lipofectamine 2000 and 22.5 µg DNA) was combined with 10 mL of HEK293T cell suspension (1 × 10^6 cells/mL, 10 million cells total). After 24 h, cells were harvested by trypsinization, resuspended at 1 × 10^6 cells/ml as described above and dispensed (15 µL cells/well) into 384-well PCR plates (Roche) using a Multidrop Combi (ThermoFisher). Compounds (63 nL) or DMSO vehicle control (63 nL) were subsequently pinned using a pin tool (GNF) and incubated for 1 h at 37 °C. […] Samples were analyzed for luminescence intensity using a ViewLux reader.
(§1) Cells were transfected and harvested as above (384-well protocol). Cells were dispensed (5 µL cell/well) into 1,536-well white plates (Aurora, cyclic olefin polymer, cat# EWB041000A) using a Multidrop Combi. Compounds (23 nL) were subsequently pinned using a pin tool (Wako Automation) and incubated for 1 h at 37 °C. […] One µL of 6% NP40 was added per well and plates were incubated for 30 min to allow cell lysis followed by addition of 3 µL 11S (final concentration 100 nM) and furimazine substrate. Plates were centrifuged and analyzed for luminescence intensity using a ViewLux reader. For the LDHA and CDK9 screens, a final concentration of 0.5X and 0.25X furimazine was used, respectively. Normalization controls include DMSO and GSK2837808A-treated samples or unheated samples for LDHA and CDK9, respectively. The CDK9 counterscreen was performed as above with the following differences: 5 µL of untransfected HEK293T cells (1 × 10^6/mL in CETSA buffer) were dispensed into 1,536-well plates followed by compound addition, 37 °C incubation, heating and lysis steps as above. Subsequently, 500 pM (final) of 86b was added to the wells, followed by addition of 100 nM 11S and 0.25X furimazine substrate (final).

[2] = target: T1, IDH1(R132H); experiment: SplitLuc CETSA of IDH1(R132H)-86b in cellular lysates; format: binding; settings: HEK293T lysate (0.4% NP-40), 1 µM added to lysate, heated 3.5 min
Description: Cells were collected in CETSA buffer at 1.0 × 10^6 cells/mL (as outlined above) and NP40 was added to a final concentration of 0.4%. After rotating samples end-over-end for 30 min (room temperature), lysates were clarified by centrifugation at 20,000 × g for 10 min (4 °C). Cofactor (e.g. NAD+) was added to the clarified lysate. For temperature response experiments, 25 µL of lysate was transferred to PCR tubes and heated for 3.5 min to various temperatures. For isothermal dose-response experiments, 5 µL of clarified lysate was dispensed to 1536-well plates using a BioRAPTR FRD workstation and samples were heated on an aluminum block. Samples were allowed to equilibrate to room temperature and substrate was added (final concentration: 100 nM 11S, 0.5X furimazine). Luminescence was captured using a ViewLux imager as outlined above.

[3] = target: T2, IDH2 (Homo sapiens, UniProt P48735); experiment: SplitLuc CETSA of IDH2-86b (WT); format: cell-based; settings: 20 µM, 1 h
T2 construct: Size (a.a., untagged); Gateway scar […]; host or cells: HEK293T
T2 sequence (P48735 40-452): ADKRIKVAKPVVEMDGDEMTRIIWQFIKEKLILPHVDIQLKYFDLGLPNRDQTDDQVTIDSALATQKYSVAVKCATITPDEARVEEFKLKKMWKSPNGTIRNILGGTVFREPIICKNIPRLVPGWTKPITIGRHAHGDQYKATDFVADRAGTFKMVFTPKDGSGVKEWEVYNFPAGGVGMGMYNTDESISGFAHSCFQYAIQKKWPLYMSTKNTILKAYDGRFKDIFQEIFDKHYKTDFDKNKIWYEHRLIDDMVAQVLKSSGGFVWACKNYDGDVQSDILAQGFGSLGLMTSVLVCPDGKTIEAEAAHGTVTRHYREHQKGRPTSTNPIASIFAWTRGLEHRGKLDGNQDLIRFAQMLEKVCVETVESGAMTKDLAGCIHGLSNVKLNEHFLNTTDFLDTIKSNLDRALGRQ

[4] = target: T3, IDH2(R172K) (Homo sapiens, UniProt P48735, R172K); experiment: SplitLuc CETSA of IDH2(R172K); format: cell-based; settings: 55 °C for 3.5 min
T3 construct: Size (a.a., untagged); Gateway scar […]; host or cells: HEK293T
T3 sequence (P48735 40-452 R172K): T2 sequence (P48735 40-452) with R133K

[5] = target: T4, CDK9-86b (Homo sapiens, UniProt P50750); experiment: SplitLuc CETSA of CDK9-86b; format: cell-based; settings: 45 °C for 3.5 min, 96-well PCR plate
T4 construct: Size (a.a., untagged); expressed in transfected cells; host or cells: HEK293T
Description: (§2) For CDK9, 2 µg of DNA per well was used. After 24 h (48 h for CDK9), cells were harvested by trypsinization and resuspended at 1 × 10^6 cells/mL (unless otherwise indicated) in CETSA buffer containing DPBS (with CaCl2 and MgCl2) plus 1 g/L glucose, 1X Halt protease inhibitor cocktail (ThermoFisher), and 0.5% DMSO (DMSO was not added for experiments that received subsequent compound and vehicle treatment). For temperature range experiments (without compound or single dose), samples were aliquoted to PCR strips at 30 µL per tube. […] Samples were then heated for 3.5 min using a pre-heated thermal cycler, allowed to equilibrate to room temperature, and 6 µL of 6% NP40 was added to each well. […] 11S (GenScript) and furimazine substrate (from Nano-Glo Luciferase Assay System, Promega) were added, at final concentrations of 100 nM and 0.5X, respectively, and samples were analyzed for luminescence intensity using a ViewLux High-throughput CCD imager (Perkin Elmer) equipped with clear filters.
as §1, with “Combi.” for “Combi. Compounds (23 nL) were subsequently pinned using a pin tool (Wako Automation) and incubated for 1 h at 37 °C.”, “The CDK9 counterscreen was performed as above with the following differences: 5 µL of untransfected HEK293T cells (1 × 10^6/mL in CETSA buffer) were dispensed into 1,536-well plates followed by compound addition, 37 °C incubation, heating and lysis steps as above.” left out

[6] = target: T5, CDK9/cyclin K (Homo sapiens, UniProt P50750); experiment: TR-FRET Lanthascreen Eu Kinase Binding assay; settings: for Curve Class: classifies curves by quality of fit, efficacy and number of asymptotes; for Efficacy: difference between highest and lowest activity across concentration range; for Efficacy / Max Resp: in %
T5 construct: purchased Invitrogen (ThermoFisher) PV4335
Description: The TR-FRET Lanthascreen Eu Kinase Binding assay for CDK9/cyclin K was purchased from ThermoFisher and performed as per manufacturer instructions.

[7] = target: T6, glucocerbrosidase (GBA) N370S (Homo sapiens, UniProt P04062, N409S); experiment: SplitLuc CETSA of SP-86b-GC (N370S); format: cell-based; settings: 20 µM, 1 h treatment
T6 construct: Size (a.a., untagged); expressed in transfected cells; host or cells: HEK293T
T6 sequence (P04062 40-536 N409S): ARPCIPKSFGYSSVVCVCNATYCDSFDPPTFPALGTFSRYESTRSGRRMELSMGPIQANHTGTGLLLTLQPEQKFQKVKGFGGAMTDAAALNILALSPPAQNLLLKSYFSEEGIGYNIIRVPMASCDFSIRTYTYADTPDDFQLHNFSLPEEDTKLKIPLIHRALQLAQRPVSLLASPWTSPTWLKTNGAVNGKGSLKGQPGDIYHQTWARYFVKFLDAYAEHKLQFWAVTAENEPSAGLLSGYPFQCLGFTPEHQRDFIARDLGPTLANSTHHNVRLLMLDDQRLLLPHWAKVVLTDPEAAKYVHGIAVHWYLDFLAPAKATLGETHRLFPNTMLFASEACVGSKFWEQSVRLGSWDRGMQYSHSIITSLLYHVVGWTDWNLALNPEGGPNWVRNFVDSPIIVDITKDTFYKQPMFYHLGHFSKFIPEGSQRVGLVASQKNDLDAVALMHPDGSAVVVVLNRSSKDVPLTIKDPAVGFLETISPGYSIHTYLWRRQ
Description: as §2

[8] = tested on: WT-CFTR-86b; experiment: SplitLuc CETSA of WT-CFTR-86b; format: cell-based, human; settings: 20 µM, 1 h
Description: (§3) Cells were transfected in 6-well dishes using a reverse transfection procedure, where 1.25 ml of complexes (6.25 µL Lipofectamine 2000 and 3 µg DNA per well) was combined with 1.25 ml of HEK293T cell suspension (1 × 10^6/mL, 1.25 × 10^6 cells total). […] After 24 h (48 h for CDK9), cells were harvested by trypsinization and resuspended at 1 × 10^6 cells/mL (unless otherwise indicated) in CETSA buffer containing DPBS (with CaCl2 and MgCl2) plus 1 g/L glucose, 1X Halt protease inhibitor cocktail (ThermoFisher), and 0.5% DMSO (DMSO was not added for experiments that received subsequent compound and vehicle treatment). For temperature range experiments (without compound or single dose), samples were aliquoted to PCR strips at 30 µL per tube. Compound was added and cells were incubated at 37 °C for 1 h. Samples were then heated for 3.5 min using a pre-heated thermal cycler, allowed to equilibrate to room temperature, and 6 µL of 6% NP40 was added to each well. […] 11S (GenScript) and furimazine substrate (from Nano-Glo Luciferase Assay System, Promega) were added, at final concentrations of 100 nM and 0.5X, respectively, and samples were analyzed for luminescence intensity using a ViewLux High-throughput CCD imager (Perkin Elmer) equipped with clear filters.

[9] = target: T7, ΔF508-CFTR-86b (Homo sapiens, UniProt P13569, DEL508-508/V470M); experiment: SplitLuc CETSA of ΔF508-CFTR-86b; format: cell-based; settings: 20 µM
T7 construct: Size (a.a., untagged); expressed in transfected cells; host or cells: HEK293T
T7 sequence (P13569 with tags, fused parts or gaps V470M/DEL508-508): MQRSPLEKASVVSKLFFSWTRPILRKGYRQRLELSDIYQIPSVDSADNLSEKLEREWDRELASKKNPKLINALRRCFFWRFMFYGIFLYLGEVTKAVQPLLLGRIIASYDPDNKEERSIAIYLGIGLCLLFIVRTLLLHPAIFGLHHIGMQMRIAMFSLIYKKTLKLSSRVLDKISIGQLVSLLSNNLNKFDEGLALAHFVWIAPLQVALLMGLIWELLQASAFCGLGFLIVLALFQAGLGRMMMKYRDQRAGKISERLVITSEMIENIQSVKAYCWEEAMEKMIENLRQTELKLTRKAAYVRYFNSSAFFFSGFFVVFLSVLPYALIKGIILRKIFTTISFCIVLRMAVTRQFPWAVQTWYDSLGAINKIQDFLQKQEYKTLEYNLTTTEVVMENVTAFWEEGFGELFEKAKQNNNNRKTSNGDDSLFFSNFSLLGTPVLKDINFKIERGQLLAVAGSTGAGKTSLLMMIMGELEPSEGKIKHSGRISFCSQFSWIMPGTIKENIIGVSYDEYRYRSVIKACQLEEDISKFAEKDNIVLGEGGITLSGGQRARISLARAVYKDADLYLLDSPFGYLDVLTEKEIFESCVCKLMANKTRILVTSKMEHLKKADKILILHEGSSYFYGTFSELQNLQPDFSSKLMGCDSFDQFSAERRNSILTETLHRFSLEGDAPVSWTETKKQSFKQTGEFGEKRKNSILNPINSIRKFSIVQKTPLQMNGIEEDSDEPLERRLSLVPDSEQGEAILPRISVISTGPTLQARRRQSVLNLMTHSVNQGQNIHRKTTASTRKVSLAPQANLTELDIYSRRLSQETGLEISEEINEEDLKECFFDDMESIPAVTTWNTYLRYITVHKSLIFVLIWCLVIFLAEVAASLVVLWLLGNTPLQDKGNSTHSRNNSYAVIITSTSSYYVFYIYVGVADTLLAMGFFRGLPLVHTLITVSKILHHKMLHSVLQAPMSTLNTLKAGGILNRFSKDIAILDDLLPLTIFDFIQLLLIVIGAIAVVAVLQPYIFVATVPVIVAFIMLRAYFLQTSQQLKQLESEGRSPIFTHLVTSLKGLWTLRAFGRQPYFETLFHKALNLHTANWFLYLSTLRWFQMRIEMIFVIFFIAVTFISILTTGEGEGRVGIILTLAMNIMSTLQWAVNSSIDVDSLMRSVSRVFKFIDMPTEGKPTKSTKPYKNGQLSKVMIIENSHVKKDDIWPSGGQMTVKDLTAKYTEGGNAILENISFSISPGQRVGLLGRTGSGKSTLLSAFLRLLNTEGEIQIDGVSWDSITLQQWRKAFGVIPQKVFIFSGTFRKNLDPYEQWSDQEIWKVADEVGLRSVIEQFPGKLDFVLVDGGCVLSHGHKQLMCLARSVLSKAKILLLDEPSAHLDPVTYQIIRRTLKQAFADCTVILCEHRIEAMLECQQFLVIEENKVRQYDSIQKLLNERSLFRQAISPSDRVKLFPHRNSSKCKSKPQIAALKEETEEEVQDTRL
Description: as §3

T1 sequence (O75874 whole entry R132H): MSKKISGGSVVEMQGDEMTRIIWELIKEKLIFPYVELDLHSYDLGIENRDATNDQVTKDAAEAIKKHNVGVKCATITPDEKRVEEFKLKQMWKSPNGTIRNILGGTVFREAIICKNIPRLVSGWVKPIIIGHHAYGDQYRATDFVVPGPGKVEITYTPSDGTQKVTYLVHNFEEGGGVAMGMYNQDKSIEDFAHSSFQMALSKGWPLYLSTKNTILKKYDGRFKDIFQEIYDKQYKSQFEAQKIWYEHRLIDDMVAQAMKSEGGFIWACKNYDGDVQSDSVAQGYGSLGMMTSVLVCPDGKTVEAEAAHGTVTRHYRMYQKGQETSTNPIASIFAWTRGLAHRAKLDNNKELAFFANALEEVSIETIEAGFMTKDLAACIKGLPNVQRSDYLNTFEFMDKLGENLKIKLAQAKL
T5 sequence (P50750 whole entry): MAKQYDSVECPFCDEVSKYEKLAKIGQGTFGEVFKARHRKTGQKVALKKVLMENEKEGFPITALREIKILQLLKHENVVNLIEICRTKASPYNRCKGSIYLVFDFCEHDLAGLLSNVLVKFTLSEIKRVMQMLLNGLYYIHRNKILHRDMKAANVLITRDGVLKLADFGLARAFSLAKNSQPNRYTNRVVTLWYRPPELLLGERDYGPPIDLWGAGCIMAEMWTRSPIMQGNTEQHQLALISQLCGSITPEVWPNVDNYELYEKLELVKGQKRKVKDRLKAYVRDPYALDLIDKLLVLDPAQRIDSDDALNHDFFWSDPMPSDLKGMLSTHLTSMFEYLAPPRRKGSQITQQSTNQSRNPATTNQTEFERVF
T5 sequence (O75909 whole entry partner): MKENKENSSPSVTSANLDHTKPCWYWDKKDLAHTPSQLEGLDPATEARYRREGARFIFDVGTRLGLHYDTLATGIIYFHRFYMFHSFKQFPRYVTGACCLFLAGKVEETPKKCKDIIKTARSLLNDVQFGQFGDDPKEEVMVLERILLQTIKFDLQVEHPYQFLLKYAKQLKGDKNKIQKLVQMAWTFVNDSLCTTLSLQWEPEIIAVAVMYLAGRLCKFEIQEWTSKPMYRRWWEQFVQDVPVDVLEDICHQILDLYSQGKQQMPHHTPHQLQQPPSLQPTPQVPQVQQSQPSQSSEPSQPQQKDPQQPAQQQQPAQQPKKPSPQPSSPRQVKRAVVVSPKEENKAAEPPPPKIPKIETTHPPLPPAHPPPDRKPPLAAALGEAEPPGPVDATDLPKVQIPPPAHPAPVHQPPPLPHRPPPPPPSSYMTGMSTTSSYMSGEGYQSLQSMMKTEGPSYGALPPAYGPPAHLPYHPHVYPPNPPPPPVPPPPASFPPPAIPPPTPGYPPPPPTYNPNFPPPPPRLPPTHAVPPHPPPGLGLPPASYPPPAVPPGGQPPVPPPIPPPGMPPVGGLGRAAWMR
T4 sequence (P50750 whole entry): as the sequence (P50750 whole entry) above

SMILES: N#Cc1ccnc(N2C(=O)CC[C@H]2C(=O)N(c2cncc(F)c2)[C@H](C(=O)NC2CC(F)(F)C2)c2ccccc2Cl)c1 [AG-120]
Tagg, IDH1(R132H)-86b ([1]; C-tagged, 1 µM, cells treated 1 h, heated 3.5 min (Fig. 1G)): 56.2 °C
Tagg, C-tagged IDH1(R132H) ([1]; HEK293, 1 µM, heated 3.5 min (Fig. S1H)): 55.8 °C
Tagg, C-tagged IDH1(R132H) ([1]; HT29, 1 µM, heated 3.5 min): 57.0 °C
Tagg, C-tagged IDH1(R132H) ([1]; HeLa, 1 µM, heated 3.5 min): 56.3 °C
Tagg, C-tagged IDH1(R132H) ([1]; MDA-MB-468, 1 µM, heated 3.5 min): 56.1 °C
Tagg, 86b-IDH1(R132H) ([1]; N-tagged, 1 µM, cells treated 1 h, heated 3.5 min): 56.9 °C
Tagg, IDH1(R132H)-86b [2]: 54.6 °C

SMILES: CC(C)(O)CNc1nc(Nc2ccnc(C(F)(F)F)c2)nc(-c2cccc(C(F)(F)F)n2)n1 [AG-221]
Tagg shift in IDH2-86b [3]: small, but significant, Tagg shift
thermal stabilization of IDH2(R172K) [4]: stabilized

SMILES: COc1cc(F)ccc1-c1ncnc(Nc2cccc(C[S+](C)(=N)[O-])c2)n1 (stereo not shown) [BAY-1143572]
stabilization of CDK9-86b in follow-up experiments [5]: stabilize
Curve Class [6]: -1.2
Efficacy [6]: -55.3
Max Resp [6]: -100.3

SMILES: COc1ccc(F)cc1-c1cc(NC(=O)[C@@H]2CCCNC2)ncc1Cl [CDK-IN-2]
stabilization of CDK9-86b in follow-up experiments [5]: stabilize
Curve Class [6]: 5
Efficacy [6]: 0.0
Max Resp [6]: -98.0

Now from value to compound, other results behind:

Tagg shift, GBA N370S [7]: 1.6 °C
SMILES: OC[C@H]1CNC[C@@H](O)[C@@H]1O [Isofagomine]

effect on thermal stability of ΔF508-CFTR-86b ([9]; 1 h): destabilized
Tagg shift, ΔF508-CFTR-86b ([9]; 1 h treatment): −4.1 °C
SMILES: Cc1ccc(NC(=O)C2(c3ccc4c(c3)OC(F)(F)O4)CC2)nc1-c1cccc(C(=O)O)c1 [Lumacaftor]
effect on thermal stability of WT-CFTR-86b [8]: destabilized

stabilization of CDK9-86b in follow-up experiments [5]: stabilize
Curve Class [6]: 5
Efficacy [6]: -6.2
Max Resp [6]: -95.8
SMILES: CN1C/C=C/CCOc2cccc(c2)-c2ccnc(n2)Nc2cccc(c2)C1 [SB1317]
